Experimental data as given in the supplement of paper PMC10307832.

Legend:
Test in all cases: relative viability (nuclei count vs DMSO), 5 days (fraction); higher = more cells survive
NCI-H2085 = system: NCI-H2085
Method in brief: (§1)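 Dosing by pin tool came one day after lung cancer cell lines were seeded in 1536-well plates, using either one drug or a fixed anchor-drug dose plus five library-drug doses (not always all listed) in √10 steps. After 5 days, nuclei were counted on 4× images. Relative viability is treated-well nuclei count divided by vehicle-well nuclei count, and values are medians of duplicate plates.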

HCC-44 = system: HCC-44
Method in brief: as §1

EKVX = system: EKVX
Method in brief: as §1

NCI-H1993 = system: NCI-H1993
Method in brief: as §1

NCI-H2126 = system: NCI-H2126
Method in brief: as §1

NCI-H1623 = system: NCI-H1623
Method in brief: as §1

ABC-1 = system: ABC-1
Method in brief: as §1

RERF-LC-KJ = system: RERF-LC-KJ
Method in brief: as §1

A549 = system: A549
Method in brief: as §1

CC(=O)O[C@@]12CO[C@@H]1C[C@H](O)[C@@]1(C)C(=O)[C@H](O)C3=C(C)[C@@H](OC(=O)[C@H](O)[C@@H](NC(=O)OC(C)(C)C)c4ccccc4)C[C@@](O)([C@@H](OC(=O)c4ccccc4)[C@H]21)C3(C)C [Docetaxel] + CCNC(=O)c1noc(-c2cc(C(C)C)c(O)cc2O)c1-c1ccc(CN2CCOCC2)cc1 [Luminespib] (partner 0.01 µM)
relative viability (NCI-H2085; first compound 0.0002 µM): 0.378
relative viability (NCI-H2085; first compound 0.000632 µM): 0.454
relative viability (NCI-H2085; first compound 0.002 µM): 0.446
relative viability (NCI-H2085; first compound 0.006325 µM): 0.322
relative viability (NCI-H2085; first compound 0.02 µM): 0.341
relative viability (HCC-44; first compound 0.0002 µM): 0.986
relative viability (HCC-44; first compound 0.000632 µM): 0.901
relative viability (HCC-44; first compound 0.002 µM): 0.35
relative viability (HCC-44; first compound 0.006325 µM): 0.289
relative viability (HCC-44; first compound 0.02 µM): 0.171
relative viability (EKVX; first compound 0.0002 µM): 0.85
relative viability (EKVX; first compound 0.000632 µM): 0.795
relative viability (EKVX; first compound 0.002 µM): 0.45
relative viability (EKVX; first compound 0.006325 µM): 0.305
relative viability (EKVX; first compound 0.02 µM): 0.161
relative viability (NCI-H1993; first compound 0.0002 µM): 0.771
relative viability (NCI-H1993; first compound 0.000632 µM): 0.783
relative viability (NCI-H1993; first compound 0.002 µM): 0.616
relative viability (NCI-H1993; first compound 0.006325 µM): 0.481
relative viability (NCI-H1993; first compound 0.02 µM): 0.446
relative viability (NCI-H2126; first compound 0.0002 µM): 0.914
relative viability (NCI-H2126; first compound 0.000632 µM): 0.739
relative viability (NCI-H2126; first compound 0.002 µM): 0.591
relative viability (NCI-H2126; first compound 0.006325 µM): 0.403
relative viability (NCI-H2126; first compound 0.02 µM): 0.255
relative viability (NCI-H1623; first compound 0.0002 µM): 0.543
relative viability (NCI-H1623; first compound 0.000632 µM): 0.405
relative viability (NCI-H1623; first compound 0.002 µM): 0.455
relative viability (NCI-H1623; first compound 0.006325 µM): 0.353
relative viability (NCI-H1623; first compound 0.02 µM): 0.281
relative viability (ABC-1; first compound 0.0002 µM): 0.619
relative viability (ABC-1; first compound 0.000632 µM): 0.704
relative viability (ABC-1; first compound 0.002 µM): 0.231
relative viability (ABC-1; first compound 0.006325 µM): 0.352
relative viability (ABC-1; first compound 0.02 µM): 0.338
relative viability (RERF-LC-KJ; first compound 0.0002 µM): 1.16
relative viability (RERF-LC-KJ; first compound 0.000632 µM): 0.853
relative viability (RERF-LC-KJ; first compound 0.002 µM): 0.353
relative viability (RERF-LC-KJ; first compound 0.02 µM): 0.211

CC(=O)O[C@@]12CO[C@@H]1C[C@H](O)[C@@]1(C)C(=O)[C@H](O)C3=C(C)[C@@H](OC(=O)[C@H](O)[C@@H](NC(=O)OC(C)(C)C)c4ccccc4)C[C@@](O)([C@@H](OC(=O)c4ccccc4)[C@H]21)C3(C)C [Docetaxel] + Cc1nc(Nc2ncc(C(=O)Nc3c(C)cccc3Cl)s2)cc(N2CCN(CCO)CC2)n1 [Dasatinib] (partner 0.075 µM)
relative viability (NCI-H2085; first compound 0.0002 µM): 0.229
relative viability (NCI-H2085; first compound 0.000632 µM): 0.268
relative viability (NCI-H2085; first compound 0.002 µM): 0.217
relative viability (NCI-H2085; first compound 0.006325 µM): 0.24
relative viability (NCI-H2085; first compound 0.02 µM): 0.176
relative viability (EKVX; first compound 0.0002 µM): 0.472
relative viability (EKVX; first compound 0.000632 µM): 0.45
relative viability (EKVX; first compound 0.002 µM): 0.296
relative viability (EKVX; first compound 0.006325 µM): 0.264
relative viability (EKVX; first compound 0.02 µM): 0.195
relative viability (NCI-H1993; first compound 0.0002 µM): 0.569
relative viability (NCI-H1993; first compound 0.000632 µM): 0.612
relative viability (NCI-H1993; first compound 0.002 µM): 0.589
relative viability (NCI-H1993; first compound 0.006325 µM): 0.638
relative viability (NCI-H1993; first compound 0.02 µM): 0.465
relative viability (NCI-H2126; first compound 0.0002 µM): 0.659
relative viability (NCI-H2126; first compound 0.000632 µM): 0.573
relative viability (NCI-H2126; first compound 0.002 µM): 0.363
relative viability (NCI-H2126; first compound 0.006325 µM): 0.339
relative viability (NCI-H1623; first compound 0.0002 µM): 0.555
relative viability (NCI-H1623; first compound 0.000632 µM): 0.529
relative viability (NCI-H1623; first compound 0.002 µM): 0.472
relative viability (NCI-H1623; first compound 0.006325 µM): 0.313
relative viability (NCI-H1623; first compound 0.02 µM): 0.239
relative viability (ABC-1; first compound 0.0002 µM): 0.533
relative viability (ABC-1; first compound 0.000632 µM): 0.434
relative viability (ABC-1; first compound 0.002 µM): 0.388
relative viability (ABC-1; first compound 0.006325 µM): 0.36
relative viability (ABC-1; first compound 0.02 µM): 0.252
relative viability (RERF-LC-KJ; first compound 0.0002 µM): 0.754
relative viability (RERF-LC-KJ; first compound 0.000632 µM): 0.586
relative viability (RERF-LC-KJ; first compound 0.002 µM): 0.295
relative viability (RERF-LC-KJ; first compound 0.006325 µM): 0.264
relative viability (RERF-LC-KJ; first compound 0.02 µM): 0.155

CC(=O)O[C@@]12CO[C@@H]1C[C@H](O)[C@@]1(C)C(=O)[C@H](O)C3=C(C)[C@@H](OC(=O)[C@H](O)[C@@H](NC(=O)OC(C)(C)C)c4ccccc4)C[C@@](O)([C@@H](OC(=O)c4ccccc4)[C@H]21)C3(C)C [Docetaxel] + N=C(N)NC(=N)NCCc1ccccc1 [Phenformin] (partner 250 µM)
relative viability (NCI-H2085; first compound 0.0002 µM): 0.735
relative viability (NCI-H2085; first compound 0.000632 µM): 0.651
relative viability (NCI-H2085; first compound 0.002 µM): 0.461
relative viability (NCI-H2085; first compound 0.006325 µM): 0.389
relative viability (NCI-H2085; first compound 0.02 µM): 0.194
relative viability (A549; first compound 0.0002 µM): 0.203
relative viability (A549; first compound 0.000632 µM): 0.0682
relative viability (A549; first compound 0.002 µM): 0.0555
relative viability (A549; first compound 0.006325 µM): 0.0466
relative viability (A549; first compound 0.02 µM): 0.0476
relative viability (HCC-44; first compound 0.0002 µM): 0.185
relative viability (HCC-44; first compound 0.000632 µM): 0.113
relative viability (HCC-44; first compound 0.002 µM): 0.113
relative viability (HCC-44; first compound 0.006325 µM): 0.101
relative viability (HCC-44; first compound 0.02 µM): 0.0735
relative viability (EKVX; first compound 0.0002 µM): 0.264
relative viability (EKVX; first compound 0.000632 µM): 0.218
relative viability (EKVX; first compound 0.002 µM): 0.191
relative viability (EKVX; first compound 0.006325 µM): 0.149
relative viability (EKVX; first compound 0.02 µM): 0.137
relative viability (NCI-H1993; first compound 0.0002 µM): 0.559
relative viability (NCI-H1993; first compound 0.000632 µM): 0.604
relative viability (NCI-H1993; first compound 0.002 µM): 0.556
relative viability (NCI-H1993; first compound 0.006325 µM): 0.489
relative viability (NCI-H1993; first compound 0.02 µM): 0.439
relative viability (NCI-H2126; first compound 0.0002 µM): 0.517
relative viability (NCI-H2126; first compound 0.000632 µM): 0.468
relative viability (NCI-H2126; first compound 0.002 µM): 0.297
relative viability (NCI-H2126; first compound 0.006325 µM): 0.33
relative viability (NCI-H2126; first compound 0.02 µM): 0.223
relative viability (NCI-H1623; first compound 0.0002 µM): 0.54
relative viability (NCI-H1623; first compound 0.000632 µM): 0.568
relative viability (NCI-H1623; first compound 0.002 µM): 0.494
relative viability (NCI-H1623; first compound 0.006325 µM): 0.313
relative viability (NCI-H1623; first compound 0.02 µM): 0.239
relative viability (ABC-1; first compound 0.0002 µM): 0.27
relative viability (ABC-1; first compound 0.000632 µM): 0.226
relative viability (ABC-1; first compound 0.002 µM): 0.232
relative viability (ABC-1; first compound 0.006325 µM): 0.223
relative viability (ABC-1; first compound 0.02 µM): 0.212
relative viability (RERF-LC-KJ; first compound 0.0002 µM): 0.454
relative viability (RERF-LC-KJ; first compound 0.000632 µM): 0.405
relative viability (RERF-LC-KJ; first compound 0.002 µM): 0.238
relative viability (RERF-LC-KJ; first compound 0.006325 µM): 0.209
relative viability (RERF-LC-KJ; first compound 0.02 µM): 0.195
